Assay results taken from PubChem BioAssay (NCI).
Values joined by “and” are separate entries in the source; they are usually repeats but may differ in a detail not shown here. Equal values may be shown once.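 Interpolation was linear, between the two tested concentrations surrounding the appropriate level; five concentrations were tested over 48 hours in 96-well plates. GI50 is the concentration that inhibits growth by half. TGI is the concentration that stops growth completely.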

System: SF-539 CNS
Test: NCI tumour cell line growth inhibition, 48 h

| Compound | GI50 | TGI |
| --- | --- | --- |
| C/C(=N\Nc1ccc(Cl)cn1)c1ccc2ccccc2n1 | 2.57 µM | 27.6 µM |
| CC1=C(/C=C/Cl)CC(Cl)C(C)(Cl)C1 (stereo unspecified) | – | > 100 µM |
| COc1c2c(cc3c1OCO3)[C@]13C=C[C@H](OC)C[C@H]1N(C2)CC3O (stereo partly specified) | – | > 100 µM |
| Cc1[nH]c(=O)nc2[nH][nH]c(=O)c12 | – | > 100 µM |
| C=C1C(=O)O[C@H]2[C@H]1CC/C(COC(=O)NCCCCNC(=O)OC/C1=C/CC[C@@]3(C)O[C@H]3[C@H]3OC(=O)C(=C)[C@@H]3CC1)=C\CC[C@@]1(C)O[C@@H]21 | 1.55 µM | 3.71 µM |
| COc1ccc(-c2nc3ccccn3c2/C=C/C(=O)c2cc(OC)c(OC)c(OC)c2)cc1OC | 2.71 µM | 14.7 µM |
| O=C(N/N=C/c1cc(Br)ccc1O)N/N=C/c1cc(Br)ccc1O | – | > 100 µM |
| CCCN(CCC)C(=O)c1c([N+](=O)[O-])cc(C(F)(F)F)cc1[N+](=O)[O-] | – | > 100 µM |
| COc1cc2[nH]c3c(c2cc1OC)CCN[C@]31CC[C@]2(CC3c4c(cc(OC)c(O)c42)CCN3C)C[C@H]1OC (stereo partly specified) | – | 31.5 µM |
| O=C1c2ccccc2C(=O)C1(O)c1c[nH]c2ccccc12 | – | > 100 µM |
| c1ccc(C2N3CCCCC3[C@@H]3c4[nH]c5ccccc5c4CCN23)nc1 (stereo partly specified) | – | > 100 µM |
| O=C(Nc1cc(Cl)c(Cl)cc1Cl)C(=O)C1C(=O)NC(=S)NC1=O | – | > 100 µM |
| O=S(=O)(c1ccc(NC(=S)NC23CC4CC(CC(C4)C2)C3)cc1)N1CCCCC1 | 4.19 µM | > 100 µM |
| [N-]=[N+]=C1C(=O)NN=C1c1ccccc1 | – | > 100 µM |
| CCOC(=O)N[C@@H]1C(CC(=O)OC)O[C@H]2OC(C)(C)O[C@H]21 (stereo partly specified) | – | > 100 µM |
| Cc1cc(NC(=S)SCc2ccc(F)cc2)c([N+](=O)[O-])cc1C | – | 53.2 µM |
| CC12OC(C(=O)C13CC3)C1C(=O)c3ccc4c(ccc5ccccc54)c3C(=O)C12 (stereo unspecified) | 32.2 µM | > 100 µM |
| Cc1cc2ncnn2cc1Nc1ncc2c(n1)n(C1CCOCC1)c(=O)n2C | 9.63 µM | 51.5 µM |
| COc1ccc(C(=O)c2cc(C)c(OC)c(C)c2)c(OC)c1O | 0.0206 µM | 0.0532 µM |
| CN(Cc1ccccc1)C(=O)c1ccccc1C(=O)O | – | > 100 µM |
| COc1cc(Cc2nccc3cc(OC)c(OC)cc23)c(C(C)=O)cc1OC | 85.3 µM and 19.9 µM | > 94.9 µM and 66.1 µM |
| COC(=O)Nc1nc2ccc(C3(c4ccc(F)cc4)OCCO3)cc2[nH]1 | 0.196 µM | 0.52 µM |

System: SK-MEL-5 melanoma
Test: NCI tumour cell line growth inhibition, 48 h

| Compound | GI50 | TGI |
| --- | --- | --- |
| CC1(C)C(=O)/C(=C\c2cccnc2)C[C@]2(C)[C@H]3CC[C@@H]4[C@H]5[C@H](C(=O)/C=C/c6cccnc6)CC[C@]5(C(=O)O)CC[C@@]4(C)[C@]3(C)CC[C@@H]12 | 1.8 µM | 3.22 µM |
| COc1cc2ncnc(-n3ncc4cc(NC(=O)Nc5ccccc5)ccc43)c2cc1OC | 5.22 µM | 21.3 µM |
| Cn1cc(C2(C)CC(C)(C)c3c2n(C)c2ccccc32)c2ccccc21 (stereo unspecified) | – | > 100 µM |
| COc1ccc(C(=O)c2cc(OC)c(OC)c(OC)c2)cc1/C=C/C(=O)c1ccc(F)cc1 | 4.31 µM | 15.5 µM |
| COC(=O)C(Cc1nc2ccccc2[nH]c1=O)C(NO)C(=O)Nc1c(Cl)cc([N+](=O)[O-])cc1Cl (stereo unspecified) | – | 46.4 µM |
| OCC1OC(n2cnc3c2NC=NC[C@H]3O)C(Cl)C1O (stereo partly specified) | – | > 100 µM |
| COc1ccc(C2=C(Cl)c3cc(OC)c(OC)cc3C2Cl)cc1 (stereo unspecified) | – | 27.5 µM |
| O=C(/C=C/c1ccc(Cl)c(Cl)c1)c1ccc2ccccc2c1 | – | > 100 µM |
| COc1ccc(-c2[nH]c3ccc(OC)cc3c2/C=C(\C#N)S(=O)(=O)c2ccccc2)cc1 | 0.319 µM | 2.39 µM |
| O=c1cc(NCC(O)CN2CCCC2)n(Cc2ccccc2)c(=O)n1Cc1ccccc1 (stereo unspecified) | 17.1 µM | 32.2 µM |
| CC1=C(/C=C/Cl)CC(Cl)C(C)(Cl)C1 (stereo unspecified) | – | > 100 µM |
| COc1c2c(cc3c1OCO3)[C@]13C=C[C@H](OC)C[C@H]1N(C2)CC3O (stereo partly specified) | – | > 100 µM |
| C=C1C(=O)O[C@H]2[C@H]1CC/C(COC(=O)NCCCCNC(=O)OC/C1=C/CC[C@@]3(C)O[C@H]3[C@H]3OC(=O)C(=C)[C@@H]3CC1)=C\CC[C@@]1(C)O[C@@H]21 | 3.33 µM | 11.8 µM |
| COc1ccc(-c2nc3ccccn3c2/C=C/C(=O)c2cc(OC)c(OC)c(OC)c2)cc1OC | 1.5 µM | 2.92 µM |
| O=C(N/N=C/c1cc(Br)ccc1O)N/N=C/c1cc(Br)ccc1O | – | > 100 µM |
| COc1cc2c3c(n(CCCN)c(=O)c2cc1OC)-c1ccc(C#N)cc1C3=O | 16.4 µM | 32.6 µM |
| COc1cc2[nH]c3c(c2cc1OC)CCN[C@]31CC[C@]2(CC3c4c(cc(OC)c(O)c42)CCN3C)C[C@H]1OC (stereo partly specified) | – | 30.6 µM |
| c1ccc(C2N3CCCCC3[C@@H]3c4[nH]c5ccccc5c4CCN23)nc1 (stereo partly specified) | – | > 100 µM |
| O=C(Nc1cc(Cl)c(Cl)cc1Cl)C(=O)C1C(=O)NC(=S)NC1=O | – | > 100 µM |
| O=S(=O)(c1ccc(NC(=S)NC23CC4CC(CC(C4)C2)C3)cc1)N1CCCCC1 | 1.75 µM | 3.31 µM |
| CCOC(=O)N[C@@H]1C(CC(=O)OC)O[C@H]2OC(C)(C)O[C@H]21 (stereo partly specified) | – | > 100 µM |
| Cc1cc(NC(=S)SCc2ccc(F)cc2)c([N+](=O)[O-])cc1C | – | 26 µM |
| Cc1cc2ncnn2cc1Nc1ncc2c(n1)n(C1CCOCC1)c(=O)n2C | 14 µM | 29.2 µM |
| COc1ccc(C(=O)c2cc(C)c(OC)c(C)c2)c(OC)c1O | 0.0552 µM | 0.292 µM |
| COc1cc(Cc2nccc3cc(OC)c(OC)cc23)c(C(C)=O)cc1OC | 25.6 µM and 130 µM | 139 µM and 486 µM |
| COC(=O)Nc1nc2ccc(C3(c4ccc(F)cc4)OCCO3)cc2[nH]1 | 0.267 µM | 17.4 µM |

System: SNB-19 CNS
Test: NCI tumour cell line growth inhibition, 48 h

| Compound | GI50 [µM] | TGI [µM] |
| --- | --- | --- |
| CC1(C)C(=O)/C(=C\c2cccnc2)C[C@]2(C)[C@H]3CC[C@@H]4[C@H]5[C@H](C(=O)/C=C/c6cccnc6)CC[C@]5(C(=O)O)CC[C@@]4(C)[C@]3(C)CC[C@@H]12 | 2.34 | 5.69 |
| COc1cc2ncnc(-n3ncc4cc(NC(=O)Nc5ccccc5)ccc43)c2cc1OC | 2.29 | 17.7 |
| Cn1cc(C2(C)CC(C)(C)c3c2n(C)c2ccccc32)c2ccccc21 (stereo unspecified) | – | > 100 |
| COc1ccc(C(=O)c2cc(OC)c(OC)c(OC)c2)cc1/C=C/C(=O)c1ccc(F)cc1 | 2.26 | 5.96 |
| COC(=O)C(Cc1nc2ccccc2[nH]c1=O)C(NO)C(=O)Nc1c(Cl)cc([N+](=O)[O-])cc1Cl (stereo unspecified) | – | > 100 |
| COC(=O)C(CC(=O)Nc1ccc(C)cc1)C(=O)C(=O)Nc1c(C(C)C)cccc1C(C)C (stereo unspecified) | – | > 100 |
| OCC1OC(n2cnc3c2NC=NC[C@H]3O)C(Cl)C1O (stereo partly specified) | – | > 100 |
| COc1ccc(C2=C(Cl)c3cc(OC)c(OC)cc3C2Cl)cc1 (stereo unspecified) | – | 39.5 |
| O=C(/C=C/c1ccc(Cl)c(Cl)c1)c1ccc2ccccc2c1 | – | > 100 |
| COc1ccc(-c2[nH]c3ccc(OC)cc3c2/C=C(\C#N)S(=O)(=O)c2ccccc2)cc1 | 3.14 | > 100 |
| O=c1cc(NCC(O)CN2CCCC2)n(Cc2ccccc2)c(=O)n1Cc1ccccc1 (stereo unspecified) | > 100 | > 100 |
| C/C(=N\Nc1ccc(Cl)cn1)c1ccc2ccccc2n1 | 3.3 | > 100 |
| CC1=C(/C=C/Cl)CC(Cl)C(C)(Cl)C1 (stereo unspecified) | – | > 100 |
| COc1c2c(cc3c1OCO3)[C@]13C=C[C@H](OC)C[C@H]1N(C2)CC3O (stereo partly specified) | – | > 100 |
| COc1ccc(-c2nc3ccccn3c2/C=C/C(=O)c2cc(OC)c(OC)c(OC)c2)cc1OC | 4.91 | > 100 |
| O=C(N/N=C/c1cc(Br)ccc1O)N/N=C/c1cc(Br)ccc1O | – | > 100 |
| CCCN(CCC)C(=O)c1c([N+](=O)[O-])cc(C(F)(F)F)cc1[N+](=O)[O-] | – | > 100 |
| COc1cc2c3c(n(CCCN)c(=O)c2cc1OC)-c1ccc(C#N)cc1C3=O | 11.6 | 30.4 |
| COc1cc2[nH]c3c(c2cc1OC)CCN[C@]31CC[C@]2(CC3c4c(cc(OC)c(O)c42)CCN3C)C[C@H]1OC (stereo partly specified) | – | > 100 |
| O=C1c2ccccc2C(=O)C1(O)c1c[nH]c2ccccc12 | – | > 100 |
| c1ccc(C2N3CCCCC3[C@@H]3c4[nH]c5ccccc5c4CCN23)nc1 (stereo partly specified) | – | > 100 |
| O=C(Nc1cc(Cl)c(Cl)cc1Cl)C(=O)C1C(=O)NC(=S)NC1=O | – | > 100 |
| Nc1ccccc1/C(O)=C1/CCOC1=O | – | > 100 |
| O=S(=O)(c1ccc(NC(=S)NC23CC4CC(CC(C4)C2)C3)cc1)N1CCCCC1 | 4.02 | > 100 |
| Cc1cc(NC(=S)SCc2ccc(F)cc2)c([N+](=O)[O-])cc1C | – | 77.1 |
| CC12OC(C(=O)C13CC3)C1C(=O)c3ccc4c(ccc5ccccc54)c3C(=O)C12 (stereo unspecified) | 71.8 | > 100 |
| COc1ccc(C(=O)c2cc(C)c(OC)c(C)c2)c(OC)c1O | 0.0332 | > 100 |
| CN(Cc1ccccc1)C(=O)c1ccccc1C(=O)O | – | > 100 |
| COC(=O)Nc1nc2ccc(C3(c4ccc(F)cc4)OCCO3)cc2[nH]1 | 0.483 | > 100 |
